Source: patent US20220323406A1, “METHODS AND COMPOSITIONS FOR DIFFERENTIATING STEM CELLS” (Massachusetts Institute of Technology, priority 2019, published 2022)

Assays:
[1] = tested on: ENR+CD organoids (ISC to Paneth cell differentiation); assay: Primary screen: basal (non-stimulated) lysozyme secretion LYZ.NS, 2.5-D 384-well ENR+CD organoid differentiation; assay type: cell-based, mouse; conditions: primary screen; for Z.LYZ.NS: standard z score
Source text: (§1) High-throughput screening.

[2] = tested on: ENR+CD organoids (ISC to Paneth cell differentiation); assay: Primary screen: CCh-stimulated lysozyme secretion LYZ.S, 2.5-D 384-well ENR+CD organoid differentiation; assay type: cell-based, mouse; conditions: primary screen
Source text: as §1

ENR+CD organoids = assay: Primary screen: ATP (CellTiter-Glo 3D, CTG) cell number/viability, 2.5-D 384-well ENR+CD organoids; conditions: primary screen; for Z.CTG: standard z score;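 for all read-outs here: compounds given at plating and again on day 3 over a 6-day differentiation from ENR+CV stem-cell-enriched precursors, ATP measured on day 6, plate median as control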

| SMILES | Dose.FC.LYZ.NS ([1]; dose 0.08 uM) [log2 fold change] | Dose.FC.LYZ.NS ([1]; dose 0.40 uM) [log2 fold change] | Dose.FC.LYZ.NS ([1]; dose 2.00 uM) [log2 fold change] | Dose.FC.LYZ.NS (log2 fold change) ([1]; dose 10.00 uM) | Z.LYZ.NS (standard z score) ([1]; dose 10.00 uM) | Z.LYZ.NS ([1]; dose 0.08 uM) | Z.LYZ.NS ([1]; dose 0.40 uM) | Z.LYZ.NS ([1]; dose 2.00 uM) | Dose.FC.LYZ.S ([2]; dose 0.08 uM) [log2 fold change] | Dose.FC.LYZ.S ([2]; dose 0.40 uM) [log2 fold change] | Dose.FC.LYZ.S ([2]; dose 2.00 uM) [log2 fold change] | Dose.FC.LYZ.S (log2 fold change) ([2]; dose 10.00 uM) | Dose.FC.CTG (ENR+CD organoids; dose 0.08 uM) [log2 fold change] | Dose.FC.CTG (ENR+CD organoids; dose 0.40 uM) [log2 fold change] | Dose.FC.CTG (ENR+CD organoids; dose 2.00 uM) [log2 fold change] | Dose.FC.CTG (log2 fold change) (ENR+CD organoids; dose 10.00 uM) | Dose.FC.LYZ.NS ([1]; dose 10.00 uM) [log2 fold change] | Dose.FC.LYZ.S ([2]; dose 10.00 uM) [log2 fold change] | Dose.FC.CTG (ENR+CD organoids; dose 10.00 uM) [log2 fold change] | Z.LYZ.NS (standard z score) ([1]; dose 0.08 uM) | further results |
| --- | --- | --- | --- | --- | --- | --- | --- | --- | --- | --- | --- | --- | --- | --- | --- | --- | --- | --- | --- | --- | --- |
| Cc1ccc(S(=O)(=O)NC(=O)NN2CC3CCCC3C2)cc1 (stereo not shown) [Gliclazide] | 0.036 | 0.032 | 0.104 | −0.035 | −0.303 | 0.313 | 0.278 | 0.909 | 0.058 | 0.086 | −0.017 | −0.060 | 0.162 | 0.054 | 0.008 | −0.092 |  |  |  |  |  |
| Cc1[nH]c2ccccc2c1CCNC(=O)c1cccs1 [CK-636] | 0.039 | −0.049 | −0.066 |  |  | 0.336 | −0.427 | −0.573 | 0.080 | −0.013 | 0.072 |  | 0.202 | −0.004 | −0.201 |  | −0.108 | −0.103 | −0.169 |  | Z.LYZ.NS ([1]; dose 10.00 uM): −0.944; Z.CTG (ENR+CD organoids; dose 0.08 uM): 0.483; Z.CTG (ENR+CD organoids; dose 0.40 uM): −0.010; Z.CTG (ENR+CD organoids; dose 2.00 uM): −0.479; Z.CTG (ENR+CD organoids; dose 10.00 uM): −0.404 |
| CNC(=O)[C@H](Cc1ccccc1)NC(=O)[C@H](CC(C)C)[C@H](CSc1cccs1)C(=O)NO [Batimastat (BB-94)] | −0.003 | 0.005 | 0.081 |  | −0.649 |  |  |  | 0.053 | 0.028 | 0.056 |  | 0.035 | −0.095 | −0.049 |  | −0.075 | −0.107 | −0.283 | −0.025 | Z.LYZ.NS (standard z score) ([1]; dose 0.40 uM): 0.042; Z.LYZ.NS (standard z score) ([1]; dose 2.00 uM): 0.707; Z.CTG (standard z score) (ENR+CD organoids; dose 0.08 uM): 0.084; Z.CTG (standard z score) (ENR+CD organoids; dose 0.40 uM): −0.226; Z.CTG (standard z score) (ENR+CD organoids; dose 2.00 uM): −0.117; Z.CTG (standard z score) (ENR+CD organoids; dose 10.00 uM): −0.676 |
| Cc1c(C(=O)Nc2ccc(N3C[C@@H](C)O[C@@H](C)C3)nc2)cccc1-c1ccc(OC(F)(F)F)cc1 [LDE225 (NVP-LDE225, Erismodegib)] |  |  |  | 0.049 | 0.426 |  |  |  |  |  |  | 0.006 |  |  |  | −0.001 |  |  |  | 0.739 | Dose.FC.LYZ.NS (log2 fold change) ([1]; dose 0.08 uM): 0.085; Dose.FC.LYZ.NS (log2 fold change) ([1]; dose 0.40 uM): 0.101; Z.LYZ.NS (standard z score) ([1]; dose 0.40 uM): 0.881; Dose.FC.LYZ.NS (log2 fold change) ([1]; dose 2.00 uM): 0.011; Z.LYZ.NS (standard z score) ([1]; dose 2.00 uM): 0.094; Dose.FC.LYZ.S (log2 fold change) ([2]; dose 0.08 uM): 0.095; Dose.FC.LYZ.S (log2 fold change) ([2]; dose 0.40 uM): 0.074; Dose.FC.LYZ.S (log2 fold change) ([2]; dose 2.00 uM): 0.002; Dose.FC.CTG (log2 fold change) (ENR+CD organoids; dose 0.08 uM): 0.107; Z.CTG (standard z score) (ENR+CD organoids; dose 0.08 uM): 0.255; Dose.FC.CTG (log2 fold change) (ENR+CD organoids; dose 0.40 uM): 0.067; Z.CTG (standard z score) (ENR+CD organoids; dose 0.40 uM): 0.159; Dose.FC.CTG (log2 fold change) (ENR+CD organoids; dose 2.00 uM): 0.229; Z.CTG (standard z score) (ENR+CD organoids; dose 2.00 uM): 0.546; Z.CTG (standard z score) (ENR+CD organoids; dose 10.00 uM): −0.002 |
